One series has as its target T1, human ACC2 (Homo sapiens, UniProt O00763).
T1 construct: made in house; host or cells: SF-9 insect cells, recombinant baculovirus BAC-ACC2 (Nd)
Kind of series: ACC2 inhibitory activity, malachite green assay with recombinant ACC2 (Nd). The format is biochemical. As to conditions: for inhibition at 1 µM: 1 μM of the test compound, read-out: ACC2 inhibitory rates (%) at 1 μM; for inhibition at 10 µM: 10 μM of the test compound, read-out: ACC2 inhibitory rates (%) at 10 μM. How it is done:
The ACC2 inhibitory action of the compound of the present invention was evaluated by the following method.
(1) Cloning of Human ACC2 Gene and Preparation of Recombinant Baculovirus
Human ACC2 gene was cloned by PCR using a human skeletal muscle cDNA library (Clontech) as a template and Primer 1 and Primer 2 shown below. Primer 1 and Primer 2 were prepared by adding SalI, XbaI restriction enzyme recognition sequences based on the information of the base sequence of human ACC2 gene (Genbank Accession U89344).
PCR was performed using Pyrobest DNA polymerase (TAKARA BIO INC.). The obtained PCR product was cloned to pT7 Blue vector (Novagen) and after confirmation of the base sequence, digested with restriction enzymes SalI and XbaI. The obtained DNA fragment was inserted into pFAST-BacHTa (Invitrogen) digested with restriction enzymes SalI and XbaI to give expression plasmid ACC2/pFAST-BacHTa.
A plasmid for expression of ACC2 without a mitochondrial targeting sequence was prepared by PCR using the expression plasmid as a template, and Primer 3 (SalI restriction enzyme recognition sequence was added) and Primer 4, which are prepared by reference to the information of human ACC2 gene base sequence (Genbank Accession U89344).
PCR was performed using Pyrobest-DNA polymerase (TAKARA BIO INC.). The obtained PCR product was cloned to pT7 Blue vector (Novagen) and after confirmation of the base sequence, digested with restriction enzymes SalI and AflII. The obtained DNA fragment was inserted into ACC2/pFAST-BacHTa digested with restriction enzymes SalI and AflII to give expression plasmid ACC2mito7/pFAST-BacHTa.
Using the expression plasmid ACC2mito7/pFAST-BacHTa and BAC-TO-BAC Baculovirus Expression System (Invitrogen), virus stock BAC-ACC2 of recombinant Baculovirus (N terminal deleted (hereinafter Nd)) was prepared.
(2) Preparation of ACC2 (Nd) Protein
SF-9 cells (Invitrogen) were inoculated to a medium (10 L) for insect cells (Sf-900IISFM medium (Invitrogen) containing 5% fetal bovine serum (Trace), 50 mg/L Gentamicin (Wako), 0.1% Pluronic F-68 (Invitrogen)) at 1.0×10^6 cells/mL, and cultured with shaking in Wave Bioreactor (GE Health Care) at 27° C., 20 rpm, rocking angle 10°, oxygen concentration 30%.
On day 2 of the culture, recombinant Baculovirus BAC-ACC2 (Nd) was added, and the cells were cultured for 3 days. The culture medium was centrifuged at 1000×g for 10 min to give virus-infected cells. The cells were washed with phosphate buffered saline (Invitrogen) and centrifuged under the same conditions. The obtained cells were cryopreserved at −80° C.
The cryopreserved cells were thawed in ice and suspended in 900 mL of 25 mM HEPES buffer (pH 7.5) containing 10% Glycerol, 0.3 M NaCl, 1 mM EDTA, 25 mM Sodium β-Glycerophosphate and 1 mM Sodium Orthovanadate, and supplemented with Complete Protease Inhibitor (Roche). The obtained suspension was homogenized three times in a polytron homogenizer (Kinematica) at 20,000 rpm for 30 sec. The obtained cell disruption solution was clarified by centrifugation at 186000×g for 60 min. To the supernatant was added 5 mL of AF-chelate 650M Ni chelated carrier (TOSOH), and the mixture was rotated at 4° C. for 1 hr, and centrifuged at 1000×g for 5 min, and the carrier was transferred to opened column. The column was washed with 50 mL of buffer A (50 mM HEPES (pH 7.5) containing 0.3 M NaCl), further washed with buffer A containing 20 mM Imidazole, and eluted with buffer A containing 250 mM Imidazole. The eluate was concentrated with Amicon Ultra 15 (Millipore) with a molecular weight cut off of 50K. The obtained concentrate was filtered using gelfiltration column (HiLoad 26/60 Superdex200 prep grade) (GE Health Care) with 50 mM HEPES buffer (pH 7.5) containing 10 mM MgCl2, 2 mM Dithiothreitol, 10 mM Tripotassium Citrate and 0.3 M NaCl to give ACC2 (Nd). The obtained ACC2 (Nd) was cryopreserved at −80° C.
(3) Measurement of ACC2 Inhibitory Activity […]

The structures appear in SMILES notation.

T1 sequence (O00763 117-2458 limits assumed): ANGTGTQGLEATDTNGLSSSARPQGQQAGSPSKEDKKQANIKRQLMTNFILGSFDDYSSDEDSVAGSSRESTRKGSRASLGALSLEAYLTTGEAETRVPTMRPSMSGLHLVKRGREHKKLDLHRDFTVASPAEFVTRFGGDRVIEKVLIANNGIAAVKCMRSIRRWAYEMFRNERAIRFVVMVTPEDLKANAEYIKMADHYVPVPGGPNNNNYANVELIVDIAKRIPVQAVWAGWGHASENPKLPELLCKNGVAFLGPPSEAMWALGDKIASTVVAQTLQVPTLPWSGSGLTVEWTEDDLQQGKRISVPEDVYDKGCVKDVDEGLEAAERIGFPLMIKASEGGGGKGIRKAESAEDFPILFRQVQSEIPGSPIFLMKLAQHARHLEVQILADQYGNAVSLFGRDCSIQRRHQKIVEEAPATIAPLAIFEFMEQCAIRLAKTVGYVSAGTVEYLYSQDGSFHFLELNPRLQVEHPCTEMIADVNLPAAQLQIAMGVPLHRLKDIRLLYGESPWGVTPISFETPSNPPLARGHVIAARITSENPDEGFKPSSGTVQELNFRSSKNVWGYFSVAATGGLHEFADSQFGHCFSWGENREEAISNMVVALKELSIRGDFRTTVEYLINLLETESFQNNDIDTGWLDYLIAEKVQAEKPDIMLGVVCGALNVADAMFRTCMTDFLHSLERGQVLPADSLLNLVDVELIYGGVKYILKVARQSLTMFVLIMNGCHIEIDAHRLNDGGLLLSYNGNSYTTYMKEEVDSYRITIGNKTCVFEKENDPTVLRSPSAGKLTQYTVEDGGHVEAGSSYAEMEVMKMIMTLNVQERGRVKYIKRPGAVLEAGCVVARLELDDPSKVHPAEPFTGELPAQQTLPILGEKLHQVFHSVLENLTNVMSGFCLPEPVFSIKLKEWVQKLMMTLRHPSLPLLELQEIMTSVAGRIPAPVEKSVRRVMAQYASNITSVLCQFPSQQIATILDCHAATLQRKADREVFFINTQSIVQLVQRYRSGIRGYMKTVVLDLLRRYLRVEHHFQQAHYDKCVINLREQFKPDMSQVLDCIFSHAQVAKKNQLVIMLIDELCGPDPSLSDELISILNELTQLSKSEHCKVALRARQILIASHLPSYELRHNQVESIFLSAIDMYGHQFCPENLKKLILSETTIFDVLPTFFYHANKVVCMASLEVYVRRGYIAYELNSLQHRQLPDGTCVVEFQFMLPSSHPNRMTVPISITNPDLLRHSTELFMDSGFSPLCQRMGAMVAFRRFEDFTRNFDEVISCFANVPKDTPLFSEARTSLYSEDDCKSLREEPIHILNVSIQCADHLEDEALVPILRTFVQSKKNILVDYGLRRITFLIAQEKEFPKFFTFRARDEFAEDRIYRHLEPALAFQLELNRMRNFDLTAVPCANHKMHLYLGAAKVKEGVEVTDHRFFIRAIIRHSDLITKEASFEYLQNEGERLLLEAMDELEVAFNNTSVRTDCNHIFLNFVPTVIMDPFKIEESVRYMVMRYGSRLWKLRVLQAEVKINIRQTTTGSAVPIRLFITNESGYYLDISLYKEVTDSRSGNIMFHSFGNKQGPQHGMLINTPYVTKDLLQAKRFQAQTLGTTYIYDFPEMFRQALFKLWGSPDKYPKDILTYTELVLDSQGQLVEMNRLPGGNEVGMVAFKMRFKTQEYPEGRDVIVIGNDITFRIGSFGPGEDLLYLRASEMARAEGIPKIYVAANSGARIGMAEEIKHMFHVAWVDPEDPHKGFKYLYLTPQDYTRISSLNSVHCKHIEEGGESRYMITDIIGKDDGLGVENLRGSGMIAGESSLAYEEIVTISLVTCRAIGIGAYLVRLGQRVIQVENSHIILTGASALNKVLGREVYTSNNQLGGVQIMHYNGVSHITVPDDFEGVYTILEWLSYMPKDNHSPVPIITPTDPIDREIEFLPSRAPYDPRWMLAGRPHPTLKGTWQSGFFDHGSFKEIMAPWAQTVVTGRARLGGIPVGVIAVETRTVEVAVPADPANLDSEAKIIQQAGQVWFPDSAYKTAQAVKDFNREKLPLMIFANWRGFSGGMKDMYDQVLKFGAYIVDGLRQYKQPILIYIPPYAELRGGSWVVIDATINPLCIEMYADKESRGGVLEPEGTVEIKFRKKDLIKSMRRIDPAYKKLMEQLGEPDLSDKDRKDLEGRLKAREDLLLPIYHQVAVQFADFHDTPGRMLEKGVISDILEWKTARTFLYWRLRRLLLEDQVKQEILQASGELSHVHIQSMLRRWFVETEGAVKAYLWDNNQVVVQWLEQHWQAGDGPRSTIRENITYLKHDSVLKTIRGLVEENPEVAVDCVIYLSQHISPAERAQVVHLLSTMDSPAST

`CC(=O)N[C@@H](C)COc1cc2oc(-c3cc(F)c(OCC4CC4)cn3)nc2cn1` [Example 65, N-((2S)-1-((2-(5-(cyclopropylmethoxy)-4-fluoropyridin-2-yl)[1,3]oxazolo[4,5-c]pyridin-6-yl)oxy)propan-2-yl)acetamide] showed a melting point of 183.3 to 183.4 °C. Also, on human ACC2, the inhibition at 1 µM was 95%.

The compound `COc1cc(-c2nc3cnc(OC[C@H](C)NC(C)=O)cc3o2)cc(F)c1OCC1CC1` [Example 62, N-((2S)-1-((2-(4-(cyclopropylmethoxy)-3-fluoro-5-methoxyphenyl) [1,3]oxazolo[4,5-c]pyridin-6-yl)oxy)propan-2-yl)acetamide] yielded a melting point of 162.9 to 163 °C. Besides, on human ACC2, the inhibition at 1 µM amounted to 90%. The compound `CC(=O)N[C@@H](C)COc1ccc2nc(-c3ccc(OCC4CC4)c(F)c3)oc2c1F` [Example 37, N-((2S)-1-((2-(4-(cyclopropylmethoxy)-3-fluorophenyl)-7-fluoro-1,3-benzoxazol-6-yl)oxy)propan-2-yl)acetamide] returned a melting point of 163 to 164 °C. For the same compound, the inhibition at 10 µM on human ACC2 stood at 90%. On to `CC(=O)N[C@@H](C)COc1ccc2nc(-c3ccc(OCC4CC4)c(F)c3)oc2c1` [Example 1, N-((2S)-1-((2-(4-(cyclopropylmethoxy)-3-fluorophenyl)-1,3-benzoxazol-6-yl)oxy)propan-2-yl)acetamide], for which the melting point was found to be 174 °C. The inhibition at 10 µM at human ACC2 worked out at 95%. With `C[C@@H](COc1ccc2nc(-c3ccc(OCC4CC4)c(F)c3)oc2c1)NC(=O)N(C)C` [Example 10, 3-((2S)-1-((2-(4-(cyclopropylmethoxy)-3-fluorophenyl)-1,3-benzoxazol-6-yl)oxy)propan-2-yl)-1,1-dimethylurea], on human ACC2, the inhibition at 10 µM was 91%.

In turn, `CC(=O)N[C@@H](C)COc1cc2oc(-c3ccc(OC[C@H]4CC4(F)F)cc3)nc2cn1` [Example 68, N-((2S)-1-((2-(4-(((1R)-2,2-difluorocyclopropyl)methoxy)phenyl) [1,3]oxazolo[4,5-c]pyridin-6-yl)oxy)propan-2-yl)acetamide] came in with a melting point of 204.6 to 204.7 °C. For the same compound, the inhibition at 1 µM on human ACC2 came to 98%. As to `CC(=O)N[C@@H](C)COc1ccc2nc(-c3ccc(OCC4CC4(F)F)c(F)c3)oc2c1F` (stereo partly drawn) [Example 80, N-((2S)-1-((2-(4-((2,2-difluorocyclopropyl)methoxy)-3-fluorophenyl)-7-fluoro-1,3-benzoxazol-6-yl)oxy)propan-2-yl)acetamide], at human ACC2, the inhibition at 10 µM came to 89%. Compound `CC(=O)N[C@@H](C)COc1cc2oc(-c3cc(F)c(OCC4CC4)cc3F)nc2cn1` [Example 48, N-((2S)-1-((2-(4-(cyclopropylmethoxy)-2,5-difluorophenyl)[1,3]oxazolo[4,5-c]pyridin-6-yl)oxy)propan-2-yl)acetamide] gave a melting point of 199.8 to 199.9 °C. The inhibition at 10 µM at human ACC2 came to 85%. As to `CC(=O)NC(C)COC1CCc2oc(-c3ccc(OCC4CC4)c(F)c3)nc2C1` (stereo not shown) [Example 51c, N-(1-((2-(4-(cyclopropylmethoxy)-3-fluorophenyl)-4,5,6,7-tetrahydro-1,3-benzoxazol-5-yl)oxy)propan-2-yl)acetamide], the inhibition at 10 µM on human ACC2 amounted to 84%. `CC(=O)N[C@@H](C)COc1cc2oc(-c3ccc(OCC4(C)CC4(F)F)c(F)c3)nc2cn1` (stereo partly drawn) [Example 159, N-((2S)-1-((2-(4-((2,2-difluoro-1-methylcyclopropyl)methoxy)-3-fluorophenyl)[1,3]oxazolo[4,5-c]pyridin-6-yl)oxy)propan-2-yl)acetamide]: on human ACC2, the inhibition at 10 µM was 80%. `CC(=O)N[C@@H](C)COc1ccc2nc(-c3ccc(OCC4CC4)c(Cl)c3)oc2c1` [Example 29, N-((2S)-1-((2-(3-chloro-4-(cyclopropylmethoxy)phenyl)-1,3-benzoxazol-6-yl)oxy)propan-2-yl)acetamide] yielded a melting point of 156 to 159 °C.

Take `CC(=O)N[C@@H](C)COc1ncc2nc(-c3ccc(OCC4CC4(F)F)cc3)oc2n1` (stereo partly drawn) [Example 136, N-((2S)-1-((2-(4-((2,2-difluorocyclopropyl)methoxy)phenyl) [1,3]oxazolo[5,4-d]pyrimidin-5-yl)oxy)propan-2-yl)acetamide]: the inhibition at 10 µM on human ACC2 amounted to 84%. Consider `CC(=O)N[C@@H](C)COc1cc2oc(-c3cc(F)c(OCC4CC4)c(F)c3)nc2cn1` [Example 47, N-((2S)-1-((2-(4-(cyclopropylmethoxy)-3,5-difluorophenyl)[1,3]oxazolo[4,5-c]pyridin-6-yl)oxy)propan-2-yl)acetamide], for which the inhibition at 10 µM on human ACC2 stood at 91%.

Source of the values: patent publication US9133129B2, “Bicyclic compound” (TAKEDA PHARMACEUTICAL COMPANY LIMITED, priority 2011, dated 2015).
